{
  "source": "PubChem BioAssay (NCI)",
  "assay_in_all_cases": "inhibition of tumour cell growth, NCI panel, 48 h",
  "key": {"T-47D breast": {"test_system": "T-47D breast"}, "COLO 205 colon": {"test_system": "COLO 205 colon"}, "EKVX NSCLC": {"test_system": "EKVX NSCLC"}, "U251 CNS": {"test_system": "U251 CNS"}, "HT29 colon": {"test_system": "HT29 colon"}, "UACC-62 melanoma": {"test_system": "UACC-62 melanoma"}, "SN12C renal": {"test_system": "SN12C renal"}, "CCRF-CEM leukemia": {"test_system": "CCRF-CEM leukemia"}, "MDA-MB-231 breast": {"test_system": "MDA-MB-231 breast"}, "UO-31 renal": {"test_system": "UO-31 renal"}, "HCT-15 colon": {"test_system": "HCT-15 colon"}, "MOLT-4 leukemia": {"test_system": "MOLT-4 leukemia"}, "NCI/ADR-RES ovarian": {"test_system": "NCI/ADR-RES ovarian"}, "MALME-3M melanoma": {"test_system": "MALME-3M melanoma"}, "DU-145 prostate": {"test_system": "DU-145 prostate"}, "TK-10 renal": {"test_system": "TK-10 renal"}, "SK-MEL-28 melanoma": {"test_system": "SK-MEL-28 melanoma"}, "NCI-H460 lung": {"test_system": "NCI-H460 lung"}, "ACHN renal": {"test_system": "ACHN renal"}, "HOP-62 NSCLC": {"test_system": "HOP-62 NSCLC"}, "CAKI-1 renal": {"test_system": "CAKI-1 renal"}, "NCI-H23 lung": {"test_system": "NCI-H23 lung"}, "HCT-116 colon": {"test_system": "HCT-116 colon"}, "SK-OV-3 ovarian": {"test_system": "SK-OV-3 ovarian"}, "K-562 leukemia": {"test_system": "K-562 leukemia"}, "HS 578T breast": {"test_system": "HS 578T breast"}, "HOP-92 NSCLC": {"test_system": "HOP-92 NSCLC"}, "MCF7 breast": {"test_system": "MCF7 breast"}, "NCI-H226 lung": {"test_system": "NCI-H226 lung"}, "A549 NSCLC": {"test_system": "A549 NSCLC"}, "UACC-257 melanoma": {"test_system": "UACC-257 melanoma"}, "SF-295 CNS": {"test_system": "SF-295 CNS"}, "MDA-N": {"test_system": "MDA-N"}, "OVCAR-5 ovarian": {"test_system": "OVCAR-5 ovarian"}, "LOX IMVI melanoma": {"test_system": "LOX IMVI melanoma"}, "SNB-19 CNS": {"test_system": "SNB-19 CNS"}, "NCI-H522 lung": {"test_system": "NCI-H522 lung"}, "SF-539 CNS": {"test_system": "SF-539 CNS"}, "M14 melanoma": {"test_system": "M14 melanoma"}, "HL-60(TB) leukemia": {"test_system": "HL-60(TB) leukemia"}, "A498 renal": {"test_system": "A498 renal"}, "OVCAR-8 ovarian": {"test_system": "OVCAR-8 ovarian"}, "SK-MEL-5 melanoma": {"test_system": "SK-MEL-5 melanoma"}, "SK-MEL-2 melanoma": {"test_system": "SK-MEL-2 melanoma"}, "PC-3 prostate": {"test_system": "PC-3 prostate"}, "RPMI-8226 leukemia": {"test_system": "RPMI-8226 leukemia"}, "OVCAR-4 ovarian": {"test_system": "OVCAR-4 ovarian"}, "RXF 393 renal": {"test_system": "RXF 393 renal"}, "MDA-MB-435": {"test_system": "MDA-MB-435"}, "BT-549 breast": {"test_system": "BT-549 breast"}, "KM12 colon": {"test_system": "KM12 colon"}, "SF-268 CNS": {"test_system": "SF-268 CNS"}, "OVCAR-3 ovarian": {"test_system": "OVCAR-3 ovarian"}, "SR leukemia": {"test_system": "SR leukemia"}, "IGROV1 ovarian": {"test_system": "IGROV1 ovarian"}, "786-0 renal": {"test_system": "786-0 renal"}, "HCC-2998 colon": {"test_system": "HCC-2998 colon"}},
  "note": "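Grown in 96-well plates, cells were treated for 48 hours with each compound at five concentrations. Insufficient inhibition: endpoint recorded as highest concentration tested. TGI is the concentration that stops growth completely.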",
  "data": [
    {"smiles": "Cc1ccc(/C(O)=C/c2nc3ccccc3[nH]c2=O)cc1", "values": [
      {"measurement": "TGI", "setting": "T-47D breast", "result": 16.3, "unit": "µM"},
      {"measurement": "TGI", "setting": "COLO 205 colon", "result": "> 100", "unit": "µM"},
      {"measurement": "TGI", "setting": "EKVX NSCLC", "result": 21.1, "unit": "µM"},
      {"measurement": "TGI", "setting": "U251 CNS", "result": 22.6, "unit": "µM"},
      {"measurement": "TGI", "setting": "HT29 colon", "result": 67.2, "unit": "µM"},
      {"measurement": "TGI", "setting": "UACC-62 melanoma", "result": 9.38, "unit": "µM"},
      {"measurement": "TGI", "setting": "SN12C renal", "result": 34, "unit": "µM"},
      {"measurement": "TGI", "setting": "CCRF-CEM leukemia", "result": "> 100", "unit": "µM"},
      {"measurement": "TGI", "setting": "MDA-MB-231 breast", "result": 15.2, "unit": "µM"},
      {"measurement": "TGI", "setting": "UO-31 renal", "result": 21, "unit": "µM"},
      {"measurement": "TGI", "setting": "HCT-15 colon", "result": "> 100", "unit": "µM"},
      {"measurement": "TGI", "setting": "MOLT-4 leukemia", "result": "> 100", "unit": "µM"},
      {"measurement": "TGI", "setting": "NCI/ADR-RES ovarian", "result": 23, "unit": "µM"},
      {"measurement": "TGI", "setting": "MALME-3M melanoma", "result": 13.4, "unit": "µM"},
      {"measurement": "TGI", "setting": "DU-145 prostate", "result": 21.5, "unit": "µM"},
      {"measurement": "TGI", "setting": "TK-10 renal", "result": 11.1, "unit": "µM"},
      {"measurement": "TGI", "setting": "SK-MEL-28 melanoma", "result": 23.2, "unit": "µM"},
      {"measurement": "TGI", "setting": "NCI-H460 lung", "result": 37.3, "unit": "µM"},
      {"measurement": "TGI", "setting": "ACHN renal", "result": 14.5, "unit": "µM"},
      {"measurement": "TGI", "setting": "HOP-62 NSCLC", "result": 5.16, "unit": "µM"},
      {"measurement": "TGI", "setting": "CAKI-1 renal", "result": 14.2, "unit": "µM"},
      {"measurement": "TGI", "setting": "NCI-H23 lung", "result": 33.4, "unit": "µM"},
      {"measurement": "TGI", "setting": "HCT-116 colon", "result": 5.7, "unit": "µM"},
      {"measurement": "TGI", "setting": "SK-OV-3 ovarian", "result": 5.64, "unit": "µM"},
      {"measurement": "TGI", "setting": "K-562 leukemia", "result": "> 100", "unit": "µM"},
      {"measurement": "TGI", "setting": "HS 578T breast", "result": 6.79, "unit": "µM"},
      {"measurement": "TGI", "setting": "HOP-92 NSCLC", "result": 27.1, "unit": "µM"},
      {"measurement": "TGI", "setting": "MCF7 breast", "result": "> 100", "unit": "µM"},
      {"measurement": "TGI", "setting": "NCI-H226 lung", "result": 6.4, "unit": "µM"},
      {"measurement": "TGI", "setting": "A549 NSCLC", "result": 19.6, "unit": "µM"},
      {"measurement": "TGI", "setting": "UACC-257 melanoma", "result": 87.4, "unit": "µM"},
      {"measurement": "TGI", "setting": "SF-295 CNS", "result": 14.6, "unit": "µM"},
      {"measurement": "TGI", "setting": "MDA-N", "result": "> 100", "unit": "µM"},
      {"measurement": "TGI", "setting": "OVCAR-5 ovarian", "result": "> 100", "unit": "µM"},
      {"measurement": "TGI", "setting": "LOX IMVI melanoma", "result": 52.1, "unit": "µM"},
      {"measurement": "TGI", "setting": "SNB-19 CNS", "result": 27.8, "unit": "µM"},
      {"measurement": "TGI", "setting": "NCI-H522 lung", "result": 6.59, "unit": "µM"},
      {"measurement": "TGI", "setting": "SF-539 CNS", "result": 27.6, "unit": "µM"},
      {"measurement": "TGI", "setting": "M14 melanoma", "result": 73.4, "unit": "µM"},
      {"measurement": "TGI", "setting": "HL-60(TB) leukemia", "result": "> 100", "unit": "µM"},
      {"measurement": "TGI", "setting": "A498 renal", "result": 58.2, "unit": "µM"},
      {"measurement": "TGI", "setting": "OVCAR-8 ovarian", "result": 12.2, "unit": "µM"},
      {"measurement": "TGI", "setting": "SK-MEL-5 melanoma", "result": "> 100", "unit": "µM"},
      {"measurement": "TGI", "setting": "SK-MEL-2 melanoma", "result": 17.6, "unit": "µM"},
      {"measurement": "TGI", "setting": "PC-3 prostate", "result": "> 100", "unit": "µM"},
      {"measurement": "TGI", "setting": "RPMI-8226 leukemia", "result": 47.5, "unit": "µM"},
      {"measurement": "TGI", "setting": "OVCAR-4 ovarian", "result": 4.04, "unit": "µM"},
      {"measurement": "TGI", "setting": "RXF 393 renal", "result": 7.1, "unit": "µM"},
      {"measurement": "TGI", "setting": "MDA-MB-435", "result": 31.8, "unit": "µM"},
      {"measurement": "TGI", "setting": "BT-549 breast", "result": 95.3, "unit": "µM"},
      {"measurement": "TGI", "setting": "KM12 colon", "result": "> 100", "unit": "µM"},
      {"measurement": "TGI", "setting": "SF-268 CNS", "result": 24, "unit": "µM"},
      {"measurement": "TGI", "setting": "OVCAR-3 ovarian", "result": 11.2, "unit": "µM"},
      {"measurement": "TGI", "setting": "SR leukemia", "result": 72.9, "unit": "µM"},
      {"measurement": "TGI", "setting": "IGROV1 ovarian", "result": 5.92, "unit": "µM"},
      {"measurement": "TGI", "setting": "786-0 renal", "result": 5.61, "unit": "µM"},
      {"measurement": "TGI", "setting": "HCC-2998 colon", "result": "> 100", "unit": "µM"}
    ]}
  ]
}
